From article PMC7736581, “Activation of the IRE1 RNase through remodeling of the kinase front pocket by ATP-competitive ligands” (Nature Communications, 2020) come the findings set out here.

As usually defined, the inhibition is the relative decrease from the control value, in per cent.

Each structure is given as a SMILES string.

Targets include ErbB4 (Homo sapiens, UniProt Q15303); HIPK1 (Homo sapiens, UniProt Q86Z02); IGF1R (Homo sapiens, UniProt P08069); GRK5 (Homo sapiens, UniProt P34947); Frk (Homo sapiens, UniProt P42685); DMPK (Homo sapiens, UniProt Q09013); EphA8 (Homo sapiens, UniProt P29322); BrSK1 (Homo sapiens, UniProt Q8TDC3); STK16 (Homo sapiens, UniProt O75716); SGK1 (Homo sapiens, UniProt O00141); PLK3 (Homo sapiens, UniProt Q9H4B4).

What all share (experiment): biochemical
Design in all cases: Invitrogen kinase panel: Z'Lyte activity (ATP at Km) or LanthaScreen competitive ATP-site binding, percent inhibition
In general terms: In TR-FRET formats the signal depends on donor and acceptor labels being close together.

Another test has as its target T1, MST1 (Homo sapiens, UniProt Q13043).
T1 construct: gene STK4

The target of another test is T2, KHS1 (Homo sapiens, UniProt Q9Y4K4).
T2 construct: gene MAP4K5

The target of the next test is T3, CamKIV (Homo sapiens, UniProt Q16566).
T3 construct: gene CAMK4
T3 sequence (Q16566 whole entry): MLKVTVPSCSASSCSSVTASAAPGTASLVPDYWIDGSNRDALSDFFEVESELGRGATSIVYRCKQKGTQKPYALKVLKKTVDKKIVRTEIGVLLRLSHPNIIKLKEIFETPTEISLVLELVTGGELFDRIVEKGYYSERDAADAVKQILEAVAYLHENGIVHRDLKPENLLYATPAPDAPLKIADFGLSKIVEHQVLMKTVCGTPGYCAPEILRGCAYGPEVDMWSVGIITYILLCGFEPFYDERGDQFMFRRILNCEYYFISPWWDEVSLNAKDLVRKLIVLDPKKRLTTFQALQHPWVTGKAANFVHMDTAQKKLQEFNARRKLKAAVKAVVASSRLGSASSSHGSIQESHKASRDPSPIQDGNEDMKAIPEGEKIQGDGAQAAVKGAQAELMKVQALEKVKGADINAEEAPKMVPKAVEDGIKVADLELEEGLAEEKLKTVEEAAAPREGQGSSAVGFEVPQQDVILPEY

The next test deals with T4, FAK (Homo sapiens, UniProt Q05397).
T4 construct: gene PTK2
T4 sequence (Q05397 whole entry): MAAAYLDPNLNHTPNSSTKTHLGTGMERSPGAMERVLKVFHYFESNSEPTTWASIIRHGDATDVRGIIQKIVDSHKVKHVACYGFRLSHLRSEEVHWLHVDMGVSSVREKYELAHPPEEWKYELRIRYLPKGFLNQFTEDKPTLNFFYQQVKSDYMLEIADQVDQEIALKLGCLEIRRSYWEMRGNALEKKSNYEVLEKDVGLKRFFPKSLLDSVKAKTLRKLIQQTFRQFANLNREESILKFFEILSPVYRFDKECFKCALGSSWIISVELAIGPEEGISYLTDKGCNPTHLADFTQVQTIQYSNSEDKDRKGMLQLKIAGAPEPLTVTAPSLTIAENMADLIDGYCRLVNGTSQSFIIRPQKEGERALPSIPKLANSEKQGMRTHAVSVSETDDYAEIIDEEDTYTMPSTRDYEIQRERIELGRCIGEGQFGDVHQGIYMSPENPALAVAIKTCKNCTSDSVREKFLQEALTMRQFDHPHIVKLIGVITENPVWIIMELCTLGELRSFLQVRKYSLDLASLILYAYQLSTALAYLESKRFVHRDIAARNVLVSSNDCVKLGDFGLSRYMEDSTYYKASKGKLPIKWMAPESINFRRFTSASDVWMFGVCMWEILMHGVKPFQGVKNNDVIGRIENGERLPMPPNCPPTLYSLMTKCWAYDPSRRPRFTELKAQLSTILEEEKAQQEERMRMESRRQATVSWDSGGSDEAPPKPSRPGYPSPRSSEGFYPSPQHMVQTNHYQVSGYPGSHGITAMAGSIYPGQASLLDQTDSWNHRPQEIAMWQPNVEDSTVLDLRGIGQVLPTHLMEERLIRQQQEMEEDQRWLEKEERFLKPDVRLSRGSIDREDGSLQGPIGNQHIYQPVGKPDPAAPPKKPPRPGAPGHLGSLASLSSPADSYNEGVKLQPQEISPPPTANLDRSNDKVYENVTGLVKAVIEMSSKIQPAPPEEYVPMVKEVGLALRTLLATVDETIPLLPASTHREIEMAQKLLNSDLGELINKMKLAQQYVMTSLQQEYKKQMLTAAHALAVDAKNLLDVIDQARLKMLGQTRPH

Another test addresses T5, ALK2 (Homo sapiens, UniProt Q04771).
T5 construct: gene ACVR1

The next test has as its target T6, PKG1_alpha (Homo sapiens, UniProt Q13976).
T6 construct: gene PRKG1; isoform alpha

The target of the next test is T7, MKK6 (Homo sapiens, UniProt P52564).
T7 construct: gene MAP2K6
T7 sequence (P52564 whole entry): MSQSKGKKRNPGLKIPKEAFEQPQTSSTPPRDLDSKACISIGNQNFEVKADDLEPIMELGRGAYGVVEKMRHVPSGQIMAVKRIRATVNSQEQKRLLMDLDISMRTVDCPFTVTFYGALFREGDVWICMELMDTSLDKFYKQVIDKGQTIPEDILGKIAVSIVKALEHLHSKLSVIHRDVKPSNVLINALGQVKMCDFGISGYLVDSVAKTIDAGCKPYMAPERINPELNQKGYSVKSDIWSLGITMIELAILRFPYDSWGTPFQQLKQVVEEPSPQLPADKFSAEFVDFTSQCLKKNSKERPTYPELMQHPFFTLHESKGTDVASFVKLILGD

The next test has as its target T8, p38_alpha(direct) (Homo sapiens, UniProt Q16539).
T8 construct: gene MAPK14; direct

For a further test, the target named is T9, Rsk1 (Homo sapiens, UniProt Q15418).
T9 construct: gene RPS6KA1
T9 sequence (Q15418 whole entry): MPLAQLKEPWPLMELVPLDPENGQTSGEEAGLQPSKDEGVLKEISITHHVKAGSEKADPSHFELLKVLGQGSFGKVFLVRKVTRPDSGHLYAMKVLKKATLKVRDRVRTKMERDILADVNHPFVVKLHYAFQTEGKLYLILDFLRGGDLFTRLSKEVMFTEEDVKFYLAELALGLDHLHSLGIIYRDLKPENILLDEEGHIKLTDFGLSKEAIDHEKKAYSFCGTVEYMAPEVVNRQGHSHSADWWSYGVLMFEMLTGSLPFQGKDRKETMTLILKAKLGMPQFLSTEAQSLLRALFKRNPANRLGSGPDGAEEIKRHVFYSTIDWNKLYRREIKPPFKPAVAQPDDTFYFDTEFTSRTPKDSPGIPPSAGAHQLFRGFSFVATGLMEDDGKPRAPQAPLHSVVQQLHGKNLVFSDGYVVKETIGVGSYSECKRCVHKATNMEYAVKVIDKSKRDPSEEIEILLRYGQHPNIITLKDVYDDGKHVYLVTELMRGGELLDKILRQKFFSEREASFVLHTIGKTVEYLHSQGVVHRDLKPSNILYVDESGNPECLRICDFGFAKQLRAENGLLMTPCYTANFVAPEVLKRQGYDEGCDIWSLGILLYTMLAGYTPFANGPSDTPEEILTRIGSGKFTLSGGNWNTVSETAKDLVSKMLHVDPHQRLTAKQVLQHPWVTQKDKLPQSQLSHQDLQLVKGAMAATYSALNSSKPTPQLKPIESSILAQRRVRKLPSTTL

A further test has as its target T10, PRK1 (Homo sapiens, UniProt Q16512).
T10 construct: gene PKN1

A further test deals with T11, IRE2 (Homo sapiens, UniProt Q76MJ5).
T11 construct: gene ERN2

The next test addresses T12, PDGFR_alpha (Homo sapiens, UniProt P16234).
T12 construct: gene PDGFRA

The target of the next test is T13, CK1_delta (Homo sapiens, UniProt P48730).
T13 construct: gene CSNK1D

BrSK1, sequence (Q8TDC3 whole entry): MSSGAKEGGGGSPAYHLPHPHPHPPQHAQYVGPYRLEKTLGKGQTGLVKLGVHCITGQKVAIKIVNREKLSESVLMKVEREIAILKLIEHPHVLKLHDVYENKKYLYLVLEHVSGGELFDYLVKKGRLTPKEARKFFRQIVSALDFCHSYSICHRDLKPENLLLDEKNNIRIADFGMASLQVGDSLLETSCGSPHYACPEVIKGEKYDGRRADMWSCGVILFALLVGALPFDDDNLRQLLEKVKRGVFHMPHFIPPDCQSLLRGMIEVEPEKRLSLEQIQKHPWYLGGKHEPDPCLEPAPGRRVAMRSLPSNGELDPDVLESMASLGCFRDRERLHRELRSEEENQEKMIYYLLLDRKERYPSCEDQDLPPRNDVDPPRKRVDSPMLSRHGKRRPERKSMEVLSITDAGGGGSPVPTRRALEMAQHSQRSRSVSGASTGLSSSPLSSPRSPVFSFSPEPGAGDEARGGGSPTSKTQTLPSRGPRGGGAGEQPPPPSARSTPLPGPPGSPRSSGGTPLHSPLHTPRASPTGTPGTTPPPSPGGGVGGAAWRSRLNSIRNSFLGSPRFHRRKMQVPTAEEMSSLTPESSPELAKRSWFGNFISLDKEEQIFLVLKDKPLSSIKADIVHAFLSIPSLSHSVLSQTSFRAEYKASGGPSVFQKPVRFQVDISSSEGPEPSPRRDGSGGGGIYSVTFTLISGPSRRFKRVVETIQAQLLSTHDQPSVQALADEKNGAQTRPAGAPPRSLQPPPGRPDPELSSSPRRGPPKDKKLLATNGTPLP
T12 sequence (P16234 whole entry): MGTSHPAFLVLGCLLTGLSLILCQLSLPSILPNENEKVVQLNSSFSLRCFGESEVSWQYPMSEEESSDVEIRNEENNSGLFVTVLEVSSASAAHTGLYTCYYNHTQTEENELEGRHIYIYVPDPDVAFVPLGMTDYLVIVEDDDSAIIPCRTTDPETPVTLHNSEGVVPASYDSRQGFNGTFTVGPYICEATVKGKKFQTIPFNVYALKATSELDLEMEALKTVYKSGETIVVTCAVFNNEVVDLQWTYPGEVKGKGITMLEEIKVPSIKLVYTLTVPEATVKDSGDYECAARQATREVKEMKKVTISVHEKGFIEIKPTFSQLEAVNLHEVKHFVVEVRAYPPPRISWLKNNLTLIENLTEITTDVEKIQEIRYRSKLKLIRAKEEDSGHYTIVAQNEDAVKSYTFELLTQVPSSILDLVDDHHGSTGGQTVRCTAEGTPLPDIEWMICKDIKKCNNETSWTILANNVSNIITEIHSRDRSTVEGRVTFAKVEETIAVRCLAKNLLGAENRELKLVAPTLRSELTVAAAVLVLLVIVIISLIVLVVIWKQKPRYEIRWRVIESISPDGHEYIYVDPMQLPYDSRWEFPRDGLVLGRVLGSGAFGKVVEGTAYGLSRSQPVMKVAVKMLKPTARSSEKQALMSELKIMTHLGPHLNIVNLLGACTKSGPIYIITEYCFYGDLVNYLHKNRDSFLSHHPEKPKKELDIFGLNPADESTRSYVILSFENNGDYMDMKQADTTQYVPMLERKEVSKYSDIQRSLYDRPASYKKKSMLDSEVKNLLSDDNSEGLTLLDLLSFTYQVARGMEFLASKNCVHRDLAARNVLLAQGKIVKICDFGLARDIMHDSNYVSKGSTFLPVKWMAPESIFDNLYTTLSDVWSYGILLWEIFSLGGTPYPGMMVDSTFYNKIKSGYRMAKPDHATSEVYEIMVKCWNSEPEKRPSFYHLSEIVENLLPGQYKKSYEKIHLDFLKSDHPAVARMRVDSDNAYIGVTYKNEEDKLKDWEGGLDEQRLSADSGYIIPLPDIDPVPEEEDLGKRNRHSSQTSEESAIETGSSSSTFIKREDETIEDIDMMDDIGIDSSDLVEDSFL
GRK5, sequence (P34947 whole entry): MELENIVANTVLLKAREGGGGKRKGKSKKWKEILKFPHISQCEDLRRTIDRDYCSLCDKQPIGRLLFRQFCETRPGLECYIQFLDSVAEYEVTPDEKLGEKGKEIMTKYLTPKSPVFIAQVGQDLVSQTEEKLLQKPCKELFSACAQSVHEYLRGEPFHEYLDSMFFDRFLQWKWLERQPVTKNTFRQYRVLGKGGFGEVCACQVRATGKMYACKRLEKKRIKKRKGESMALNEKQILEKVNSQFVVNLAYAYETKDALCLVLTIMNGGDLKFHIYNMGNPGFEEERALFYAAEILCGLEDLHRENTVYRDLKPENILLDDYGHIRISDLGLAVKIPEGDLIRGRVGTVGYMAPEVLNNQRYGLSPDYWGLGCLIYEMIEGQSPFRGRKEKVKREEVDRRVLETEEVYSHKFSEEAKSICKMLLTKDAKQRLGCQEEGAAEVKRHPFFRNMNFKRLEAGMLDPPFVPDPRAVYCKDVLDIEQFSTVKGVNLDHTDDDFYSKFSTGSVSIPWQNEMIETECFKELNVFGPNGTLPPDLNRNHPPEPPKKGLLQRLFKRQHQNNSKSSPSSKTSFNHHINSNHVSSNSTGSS

`CCOC(=O)Nc1cccc2c(Oc3ncccc3-c3ccnc(N[C@H]4CCCNC4)n3)c(C)ccc12` [G-1749]: the inhibition at 1 µM at MST1 was 1%; at ErbB4, 4.5%; on HIPK1 it was 1%; on KHS1, 29.5%; on IGF1R, 6.5%; on CamKIV, -1.5%. Moreover, the inhibition at 1 µM at GRK5 was -3%; on Frk, 10.5%; on DMPK, 0%; on FAK, 1.5%; on ALK2 it was 1%; at PKG1_alpha, 1%. Also, the inhibition at 1 µM on MKK6 is -3.5%; at EphA8 it was 1.5%; at p38_alpha(direct) it was 77.5%; on BrSK1, 6.5%; on Rsk1 it was 3%; on PRK1 it was 0%. In addition, the inhibition at 1 µM is 9.5% on IRE2; -3.5% at PDGFR_alpha; -5.5% on STK16; 5.5% at SGK1; -5% at PLK3; 3% at CK1_delta.
On to `CC#CC(=O)Nc1cccc2c(Oc3ncccc3-c3ccnc(N[C@H]4CCCNC4)n3)c(C)ccc12` [G-7658], for which the inhibition at 1 µM at MST1 was -0.5%; at ErbB4, 11.5%; at HIPK1 it was 0.5%; on KHS1, 18%; at IGF1R, 5.5%; on CamKIV, -2.5%. The inhibition at 1 µM is -3% at GRK5; 1.5% on Frk; 1.5% at DMPK; 1.5% on FAK; 0.5% on ALK2; 3.5% at PKG1_alpha. The inhibition at 1 µM is -2% on MKK6; 6.5% at EphA8; 36.5% on p38_alpha(direct); 4.5% at BrSK1; 1.5% at Rsk1; -1.5% on PRK1. For the same compound, the inhibition at 1 µM was 5.5% at IRE2; -0.5% at PDGFR_alpha; -9% at STK16; 3.5% at SGK1; -2.5% at PLK3; 5.5% on CK1_delta.
